Results reported in article PMC2917178 (Biochemistry, 2010).
“Also recorded” adds a separate entry of the source. Read-outs that look alike come from different tables or passages of the source.

How the values were obtained:
[1] = biological target: Rtt109 D288N (with Vps75) (Saccharomyces cerevisiae, UniProt P53853+Q07794, D288N); assay type: biochemical, yeast (Saccharomyces cerevisiae); details: AcCoA varied 0.5-30 μM, 400 μM H3 peptide, 0.1-0.5 μM Rtt109 variant, 4 μM Vps75, 50 mM Tris pH 7.5, 25 °C
Rtt109 D288N (with Vps75), sequence (Q07794 whole entry D288N, one chain of several): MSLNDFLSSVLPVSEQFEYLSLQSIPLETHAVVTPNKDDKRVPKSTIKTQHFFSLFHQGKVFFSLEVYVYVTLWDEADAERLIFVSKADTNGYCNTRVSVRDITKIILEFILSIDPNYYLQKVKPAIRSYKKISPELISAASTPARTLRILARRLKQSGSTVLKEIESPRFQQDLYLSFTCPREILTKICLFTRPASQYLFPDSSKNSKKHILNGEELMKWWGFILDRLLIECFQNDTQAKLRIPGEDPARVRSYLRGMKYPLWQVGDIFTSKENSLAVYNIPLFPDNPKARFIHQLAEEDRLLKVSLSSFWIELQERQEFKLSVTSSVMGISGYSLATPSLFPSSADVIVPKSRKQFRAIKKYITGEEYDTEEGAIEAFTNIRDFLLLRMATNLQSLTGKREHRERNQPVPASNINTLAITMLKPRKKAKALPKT

[2] = biological target: Rtt109 D287N (with Vps75) (Saccharomyces cerevisiae, UniProt P53853+Q07794, D287N); assay type: biochemical, yeast (Saccharomyces cerevisiae); details: AcCoA varied 0.5-30 μM, 400 μM H3 peptide, 0.1-0.5 μM Rtt109 variant, 4 μM Vps75, 50 mM Tris pH 7.5, 25 °C
Rtt109 D287N (with Vps75), sequence (Q07794 whole entry D287N, one chain of several): as the sequence (Q07794 whole entry D288N, one chain of several) above, with D287N, N288D counted along it

[3] = biological target: T1, Rtt109-Vps75 (Saccharomyces cerevisiae, UniProt P53853+Q07794); assay: Isothermal titration calorimetry into Rtt109-Vps75; assay type: binding, yeast (Saccharomyces cerevisiae)
T1 sequence (Q07794 1-436): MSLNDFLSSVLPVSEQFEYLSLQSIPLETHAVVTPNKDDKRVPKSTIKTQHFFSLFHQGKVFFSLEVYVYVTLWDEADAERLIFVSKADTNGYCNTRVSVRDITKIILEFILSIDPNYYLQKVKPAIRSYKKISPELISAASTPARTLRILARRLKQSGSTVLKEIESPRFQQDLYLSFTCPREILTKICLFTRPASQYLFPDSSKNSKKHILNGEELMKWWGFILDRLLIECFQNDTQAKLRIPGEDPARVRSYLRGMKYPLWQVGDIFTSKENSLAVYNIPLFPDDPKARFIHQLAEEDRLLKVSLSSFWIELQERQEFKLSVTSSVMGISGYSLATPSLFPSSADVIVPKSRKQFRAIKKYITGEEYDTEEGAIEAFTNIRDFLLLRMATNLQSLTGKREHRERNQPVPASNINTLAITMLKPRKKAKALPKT
T1 sequence (P53853 1-264 partner): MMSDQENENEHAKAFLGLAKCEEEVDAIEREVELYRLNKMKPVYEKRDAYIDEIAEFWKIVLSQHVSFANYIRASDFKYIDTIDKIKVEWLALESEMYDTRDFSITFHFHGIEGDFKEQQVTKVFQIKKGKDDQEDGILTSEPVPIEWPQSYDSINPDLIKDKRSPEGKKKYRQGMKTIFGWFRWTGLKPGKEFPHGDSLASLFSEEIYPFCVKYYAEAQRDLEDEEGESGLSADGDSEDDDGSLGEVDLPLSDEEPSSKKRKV

[4] = biological target: T1, Rtt109-Vps75; assay: CoA product inhibition of Rtt109-Vps75; assay type: biochemical, yeast (Saccharomyces cerevisiae)
[5] = Stability of Rtt109 alone; assay type: physicochemical; details: without AcCoA or Vps75, 25°C
[6] = system: Rtt109; assay: HAT activity with fluorescein-labeled Vps75; assay type: biochemical, yeast; details: fluorescein-5-maleimide labeled Vps75, 1:1 label to Vps75
[7] = system: p300; details: cited from earlier work

Compound: CC(=O)SCCNC(=O)CCNC(=O)[C@H](O)C(C)(C)COP(=O)(O)OP(=O)(O)OC[C@H]1O[C@@H](n2cnc3c(N)ncnc32)[C@H](O)[C@@H]1OP(=O)(O)O [AcCoA, acetyl-Coenzyme A]
- Km [1]: 4.9 ± 0.9 µM
- kcat [1]: 2.8 ± 0.2 × 10^-3 s^-1
- kcat/Km [1]: 6 ± 1 × 10^2 M^-1s^-1
- Km [2]: 700 ± 300 nM
- kcat [2]: 1.2 ± 0.1 × 10^-2 s^-1
- kcat/Km [2]: 1.7 ± 0.7 × 10^4 M^-1s^-1
- Kd ([3]; 167 μM AcCoA titrated into 5.8 μM Rtt109-Vps75, 50 mM Tris pH 7.5 at 25°C, 5% glycerol, 50 mM NaCl, 2 mM β-mercaptoethanol, 1 mM EDTA, one-site model): 1.4 ± 0.3 µM
- binding affinity for AcCoA over CoA ([3]; ratio of binding affinities, Rtt109-Vps75): 30 fold

Compound: CC(C)(COP(=O)(O)OP(=O)(O)OC[C@H]1O[C@@H](n2cnc3c(N)ncnc32)[C@H](O)[C@@H]1OP(=O)(O)O)[C@@H](O)C(=O)NCCC(=O)NCCS [CoA, Coenzyme A]
- Ki [4]: 110 ± 20 µM
- product inhibition pattern versus AcCoA ([4]; varied AcCoA, fixed CoA, 5 μM full-length H3, double reciprocal plot): binds competitively with AcCoA; also recorded: competitive inhibition
- Kd [3]: 43 ± 5 µM

Compound: Rtt109: yeast histone acetyltransferase, Regulator of Ty1 Transposition 109
- stability of protein alone [5]: unstable and precipitates at 25 °C; also recorded: unstable protein and is highly prone to aggregation

Compound: labeled Vps75: Vps75 labeled with fluorescein-5-maleimide, 1:1
- loss in HAT activity on fluorescein labeling [6]: < 2 fold

Compound: p300: mammalian HAT, structural homolog of Rtt109
- pKa of ionizable group required for catalysis [7]: 8.4
